One assay deals with T1, Recombinant IDO1 (Homo sapiens, UniProt P14902).
T1 construct: His tag (N); made in house; host or cells: E. coli
Nature of the assay: IDO1 enzymatic assay. The assay is classed as biochemical. The settings on record: 50 nM IDO1, 1.3 mM D-tryptophan, read-out: Enzyme IC50 (nM) IDO1. On the procedure: Recombinant IDO1 was overexpressed and purified from E. coli cells with an N-terminal His tag. IDO1 enzymatic assay was carried out using a methodology similar to described in the literature (J. Biol. Chem. (1980), 255, 1339-1345.). The reaction mixture contains 50 nM IDO1, 1.3 mM D-tryptophan, 5 mM L-ascorbic acid, 6.25 μM methylene Blue, 0.4 mg/mL catalase and compound (or DMSO) in a buffer containing 50 mM potassium phosphate pH 7.5 and 0.1% BSA. After incubation at 24° C. for 1.5 hours, absorbance of the reaction mixture was continuously read at 321 nm to monitor the formation of N′-formylkynurenine by a FULOstar OMEGA plate reader (BMG LABTECH) for 1 hour. The enzymatic activity was determined by measuring the slope of the linear absorbance increase as a function of time. The IC50s are calculated based on remaining enzyme activity in the presence of increasing concentrations of compounds.

The target of assay [1] is T2, cellular IDO1 in HeLa cells (Homo sapiens, UniProt P14902).
T2 construct: endogenous in cells; host or cells: HeLa cells (American Type Tissue Culture Collection), induced with human recombinant IFN-γ
Nature of the assay: HeLa cell-based IDO1 Kyn (kynurenine) production assay. The settings on record: IFN-γ 100 ng/mL, 48 hours. The protocol: HeLa Cell-Based IDO1 Kyn (Kynurenine) Production Assay:
The inhibitory activity of IDO1 inhibitors is determined by using a colorimetric reaction to measure Kyn generated from L-Trp (L-Tryptophon) oxidation by cellular IDO1 in HeLa cells after induction of IDO1 by IFN-γ.
Hela cells were obtained from the American Type Tissue Culture Collection and recovered in 10% FBS-containing phenol red-free DMEM medium supplemented with 0.4 mM L-Trp. Cells were plated onto a 96-well plate (100 μl/well) at 8000 cells per well. Human recombinant IFN-γ (8901SC, CST) was added to cells (final concentration 100 ng/mL) to stimulate endogenous IDO1. Compounds at different concentrations diluted in dimethylsulfoxide (DMSO) were added simultaneously with IFN-γ. Cells were kept at 37° C. in a humidified incubator supplied with 5% CO2. After 48 hours of incubation, 100 μl supernatant from each well was removed to a new plate. The protein in the medium was precipitated with the addition of 8 μl 6N trichloroacetic acid. The plate was incubated at 60° C. for 45 min and then centrifugation at 2500 rpm for 10 min to remove sediments. 80 μl supernatants were carefully removed to a new clean plate and added with an equal volume of 2% 4-(Dimethylamino) benzaldehyde (D2004, sigma) dissolved in glacial acetic acid. The absorbance at 480 nm wavelength derived from Kyn was measured using a FULOstar OMEGA plate reader (BMG LABTECH). The IC50 for each compound was derived from fitting the dose-response data to the four-parameter logistic model by using Graphpad Prism software.

Setting [2] is: Table 2, 8-substituted imidazo[1,5-a]pyridines.
Where [3] appears, read: Table 1, 5-substituted imidazo[1,5-a]pyridines.

The structures appear in SMILES notation. Like-named read-outs stand apart in the source and are kept apart here.

The values below come from patent publication US10280163B2 (BeiGene, Ltd., priority 2015, dated 2019).

A word on the IC50: it is the point on the concentration scale where inhibition reaches its midpoint. What is called EC50 is the concentration giving half of the maximal effect. Low readings indicate a more potent agent, high ones a less potent agent.

T1 sequence (P14902 whole entry): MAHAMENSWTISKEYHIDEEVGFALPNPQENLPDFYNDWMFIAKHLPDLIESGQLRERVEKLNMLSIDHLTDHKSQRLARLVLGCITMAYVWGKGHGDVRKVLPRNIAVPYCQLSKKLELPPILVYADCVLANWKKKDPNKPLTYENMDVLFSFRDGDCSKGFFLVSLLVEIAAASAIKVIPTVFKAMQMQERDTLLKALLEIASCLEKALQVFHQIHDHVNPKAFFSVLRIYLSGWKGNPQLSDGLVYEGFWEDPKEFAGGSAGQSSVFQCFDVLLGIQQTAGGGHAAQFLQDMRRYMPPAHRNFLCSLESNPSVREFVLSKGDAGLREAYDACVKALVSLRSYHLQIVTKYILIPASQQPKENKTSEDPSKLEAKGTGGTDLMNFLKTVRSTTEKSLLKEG
T2 sequence (P14902 whole entry): as above

In the case of `OC(c1c(C2CC2)ccn2cncc12)[C@H]1CC[C@H](O)CC1` (single isomer, unassigned) [Example B119b, (trans)-4-((7-Cyclopropylimidazo[1,5-a]pyridin-8-yl)(hydroxy)methyl)cyclohexan-1-ol], the IC50 at Recombinant IDO1 (setting [2]) came out at 5500 nM. Further, in assay [1] (setting [2]), the EC50 was > 10000 nM.

In the case of `OC(c1c(C2CC2)ccn2cncc12)[C@H]1CC[C@@H](O)CC1` (single isomer, unassigned) [Example B119c], on Recombinant IDO1 (setting [2]), the IC50 was 7700 nM. The EC50 in assay [1] (setting [2]) is > 10000 nM.

In the case of `OC(c1c(C2CC2)ccn2cncc12)[C@H]1CC[C@@H](O)CC1` (single isomer, unassigned) [Example B119d], the IC50 at Recombinant IDO1 (setting [2]) was 110 nM. Also, in assay [1] (setting [2]), the EC50 was 2990 nM.

As for `CC(C)c1ccn2cncc2c1C(O)[C@H]1CC[C@H](O)CC1` (single isomer, unassigned) [Example B121a, (trans)-4-(Hydroxy(7-isopropylimidazo[1,5-a]pyridin-8-yl)methyl) cyclohexan-1-ol], the IC50 at Recombinant IDO1 (setting [2]) amounted to 210 nM. The molecule also registered an EC50 in assay [1] (setting [2]) of 719 nM.

With `CC(C)c1ccn2cncc2c1C(O)[C@H]1CC[C@H](O)CC1` (single isomer, unassigned) [Example B121b, (trans)-4-(Hydroxy(7-isopropylimidazo[1,5-a]pyridin-8-yl)methyl) cyclohexan-1-ol], on Recombinant IDO1 (setting [2]), the half-inhibitory concentration (IC50) amounted to 21000 nM. Also, in assay [1] (setting [2]), the EC50 is > 10000 nM.

With `CC(C)c1ccn2cncc2c1[C@@H](O)[C@H]1CC[C@@H](O)CC1` (single isomer, unassigned) [Example B121c], at Recombinant IDO1 (setting [2]), the IC50 was determined as 110 nM. The EC50 in assay [1] (setting [2]) was 1670 nM.

As to `CC(C)c1ccn2cncc2c1C(O)[C@H]1CC[C@@H](O)CC1` (single isomer, unassigned) [Example B121d], the IC50 on Recombinant IDO1 (setting [2]) came to 46000 nM. In assay [1] (setting [2]), the EC50 is > 10000 nM.

On to `O[C@H](c1c(C2CC2)ccn2cncc12)C1CC2CCC1C2` (single isomer, unassigned) [Example B122b], for which the IC50 at Recombinant IDO1 (setting [2]) was 78 nM. The same molecule displayed an EC50 in assay [1] (setting [2]) of 295 nM.

In the case of `OC(c1c([C@H]2C[C@@H]2F)ccn2cncc12)C1CCCCC1` (single isomer, unassigned) [Example B128b, Cyclohexyl(7-((trans)-2-fluorocyclopropyl)imidazo[1,5-a]pyridin-8-yl)methanol], at Recombinant IDO1 (setting [2]), the IC50 stood at 39000 nM. In addition, in assay [1] (setting [2]), the EC50 is > 10000 nM.

As for `OC(c1c([C@H]2C[C@@H]2F)ccn2cncc12)C1CCCCC1` (single isomer, unassigned) [Example B128c, Cyclohexyl(7-((trans)-2-fluorocyclopropyl)imidazo[1,5-a]pyridin-8-yl)methanol], on Recombinant IDO1 (setting [2]), the concentration for half-maximal inhibition (IC50) was found to be 110000 nM. Further, in assay [1] (setting [2]), the half-maximal effective concentration (EC50) was > 10000 nM.

Consider `CS(=O)(=O)N1CCCC(C(O)c2c(C3CC3)ccn3cncc23)C1` (single isomer, unassigned) [Example B130a, (7-Cyclopropylimidazo[1,5-a]pyridin-8-yl)(1-(methylsulfonyl)piperidin-3-yl)methanol], for which, at Recombinant IDO1 (setting [2]), the IC50 amounted to 1400 nM. Moreover, the EC50 in assay [1] (setting [2]) is > 10000 nM.

Turning to `CS(=O)(=O)N1CCCC(C(O)c2c(C3CC3)ccn3cncc23)C1` (single isomer, unassigned) [Example B130b, (7-Cyclopropylimidazo[1,5-a]pyridin-8-yl)(1-(methylsulfonyl)piperidin-3-yl)methanol], the IC50 on Recombinant IDO1 (setting [2]) is 1200 nM. The molecule also yielded an EC50 in assay [1] (setting [2]) of 909 nM.

For `CC(=O)N1CCCC(C(O)c2c(C3CC3)ccn3cncc23)C1` (single isomer, unassigned) [Example B133a, 1-(3-((7-Cyclopropylimidazo[1,5-a]pyridin-8-yl)(hydroxy)methy)piperidin-1-yl)ethan-1-one], the IC50 on Recombinant IDO1 (setting [2]) was determined as 1900 nM. In assay [1] (setting [2]), the EC50 is > 10000 nM.

Regarding `CC(=O)N1CCCC(C(O)c2c(C3CC3)ccn3cncc23)C1` (single isomer, unassigned) [Example B133b, 1-(3-((7-Cyclopropylimidazo[1,5-a]pyridin-8-yl)(hydroxy)methy)piperidin-1-yl)ethan-1-one], the IC50 at Recombinant IDO1 (setting [2]) came to 1100 nM. This molecule also returned an EC50 in assay [1] (setting [2]) of 6810 nM.

For the molecule `NS(=O)(=O)N1CCCC(C(O)c2c(C3CC3)ccn3cncc23)C1` (single isomer, unassigned) [Example B135a, 3-((7-Cyclopropylimidazo[1,5-a]pyridin-8-yl)(hydroxy)methyl)piperidine-1-sulfonamide], the IC50 at Recombinant IDO1 (setting [2]) worked out at 1100 nM. The EC50 in assay [1] (setting [2]) is > 10000 nM.

`NS(=O)(=O)N1CCCC(C(O)c2c(C3CC3)ccn3cncc23)C1` (single isomer, unassigned) [Example B135b, 3-((7-Cyclopropylimidazo[1,5-a]pyridin-8-yl)(hydroxy)methyl)piperidine-1-sulfonamide]: the IC50 on Recombinant IDO1 (setting [2]) is 950 nM. The same molecule registered an EC50 in assay [1] (setting [2]) of 1350 nM.

As to `OC(c1c(C2CC2)ccn2cncc12)C1CCC(c2ccccc2)CC1` (single isomer, unassigned) [Example B143a, (S)-(7-cyclopropylimidazo[1,5-a]pyridin-8-yl)(trans or cis-4-phenylcyclohexyl)methanol], the IC50 at Recombinant IDO1 (setting [2]) came to 56 nM. This molecule also showed an EC50 in assay [1] (setting [2]) of 79 nM.

For the molecule `OC(c1c(C2CC2)ccn2cncc12)C1CCC(c2ccccc2)CC1` (single isomer, unassigned) [Example B143b, (S)-(7-cyclopropylimidazo[1,5-a]pyridin-8-yl)(cis or trans-4-phenylcyclohexyl)methanol], the IC50 on Recombinant IDO1 (setting [2]) came out at 300 nM. For the same molecule, in assay [1] (setting [2]), the response was half-maximal at 8660 nM (EC50).

`CC(C)(C)C(O)c1cccc2cncn12` (stereo not shown) [Example A004, 1-(imidazo[1,5-a]pyridin-5-yl)-2,2-dimethylpropan-1-ol]: on Recombinant IDO1 (setting [3]), the IC50 turned out to be 360 nM. Further, in assay [1] (setting [3]), the EC50 was > 10000 nM.

With `CC(C)C(O)c1cccc2cncn12` (stereo not shown) [Example A005, 1-(imidazo[1,5-a]pyridin-5-yl)-2-methylpropan-1-ol], the IC50 at Recombinant IDO1 (setting [3]) stood at 1500 nM. In assay [1] (setting [3]), the EC50 was > 10000 nM.

On to `OC(c1ccc(F)cc1)c1cccc2cncn12` (stereo not shown) [Example A008, (4-fluorophenyl)(imidazo[1,5-a]pyridin-5-yl)methanol], for which, at Recombinant IDO1 (setting [3]), the IC50 was 2400 nM. Also, in assay [1] (setting [3]), the EC50 was > 10000 nM.

For `CC(O)(c1cccc2cncn12)C1CCCCC1` (stereo not shown) [Example A016, 1-cyclohexyl-1-(imidazo[1,5-a]pyridin-5-yl)ethan-1-ol], the IC50 at Recombinant IDO1 (setting [3]) was 23000 nM. For the same molecule, the EC50 in assay [1] (setting [3]) was > 10000 nM.

As to `FC(c1cc(Cl)cc2cncn12)C1CCCCC1` (stereo not shown) [Example A021, 7-chloro-5-(cyclohexylfluoromethyl)imidazo[1,5-a]pyridine], the IC50 on Recombinant IDO1 (setting [3]) worked out at 1800 nM. In addition, the EC50 in assay [1] (setting [3]) was > 10000 nM.

Turning to `OC(CC1CCCCC1)c1ccc(Cl)c2cncn12` (stereo not shown) [Example A025, 1-(8-chloroimidazo[1,5-a]pyridin-5-yl)-2-cyclohexylethan-1-ol], on Recombinant IDO1 (setting [3]), the IC50 was found to be 2500 nM. Also, the EC50 in assay [1] (setting [3]) was > 10000 nM.

As for `OCC1(C(O)c2cc(Cl)cc3cncn23)CCCCC1` (stereo not shown) [Example A106, (7-chloroimidazo[1,5-a]pyridin-5-yl)(1-(hydroxymethyl)cyclohexyl)methanol], the IC50 on Recombinant IDO1 (setting [3]) is 120 nM. Also, the response in assay [1] (setting [3]) was half-maximal at 1660 nM (EC50).

On to `CC(C1CCCCC1)C(O)c1c(Cl)ccc2cncn12` (stereo not shown) [Example A121, 1-(6-chloroimidazo[1,5-a]pyridin-5-yl)-2-cyclohexylpropan-1-ol], for which the half-inhibitory concentration (IC50) on Recombinant IDO1 (setting [3]) is 29 nM. This molecule yielded an EC50 in assay [1] (setting [3]) of 1570 nM.

For the molecule `OC(c1c(C2CC2)ccc2cncn12)C1CC1` (stereo not shown) [Example A137, cyclopropyl(6-cyclopropylimidazo[1,5-a]pyridin-5-yl)methanol], the IC50 at Recombinant IDO1 (setting [3]) was found to be 25 nM. This molecule came in with an EC50 in assay [1] (setting [3]) of 3760 nM.

As for `OC1CCC([C@H](O)c2c(C3CC3)ccc3cncn23)CC1` (stereo partly drawn) [Example A142a, (1R,4s)-4-((S)-(6-cyclopropylimidazo[1,5-a]pyridin-5-yl)(hydroxy)methyl)cyclohexan-1-ol], the IC50 at Recombinant IDO1 (setting [3]) was determined as 12 nM. The molecule also yielded an EC50 in assay [1] (setting [3]) of 661 nM.

For `OC(c1c(C2=CCCC2)ccc2cncn12)C1CCCCC1` (stereo not shown) [Example A157, cyclohexyl(6-(cyclopent-1-en-1-yl)imidazo[1,5-a]pyridin-5-yl)methanol], on Recombinant IDO1 (setting [3]), the IC50 amounted to 200 nM. In assay [1] (setting [3]), this molecule registered an EC50 of 2680 nM.
